Some results are limits rather than exact numbers.

The target of this assay is T1, Human autotaxin enzyme (Homo sapiens, UniProt Q13822).
T1 construct: purchased R&D System
The assay can be described thus: Evaluation of autotaxin inhibitor, 18:0 Lyso PC / choline assay (Test Example 2). Format: biochemical. As to conditions: human autotaxin enzyme, 18:0 Lyso PC substrate, choline assay, room temperature 2 hours; read-out: Inhibitor activity (IC50). The method in brief:
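Inhibition derived from concentration-dependent curves, scaled between no-compound (0%) and no-enzyme (100%) wells. Choline generated from 18:0 Lyso PC (200 μM stock) by human enzyme over 2 h at room temperature (Tris-HCl pH 7.5, NaCl, MgCl2, Triton X-100) read as resorufin fluorescence, 531/598 nm, after choline oxidase-peroxidase coupling.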
The IC50 is the concentration at which inhibition is half-maximal. `O=C(Cn1c(CCCC(F)(F)F)nc(C2=CCC(C(F)(F)F)CC2)cc1=O)NCC1(CO)COC1` (stereo not drawn) [Compound I-0339]: the IC50 was in the range of 10 to 100 nM. For `O=C(Cn1c(CCCC(F)(F)F)nc(-c2ccc(C(F)(F)F)cc2)cc1=O)NCc1ccc(O)nc1` [Compound I-0340] the value was 100 to 1000 nM; for `CC(C)(C)OC(=O)Cn1c(CCC(F)(F)F)nc(-c2ccc(Cl)cc2NC(=O)C(C)(C)C)cc1=O` [Compound I-0341], 100 to 1000 nM; for `NC(=O)C1CCN(C(=O)Cn2c(CCCC(F)(F)F)nc(-c3ccc(C(F)(F)F)cc3)cc2=O)CC1` [Compound I-0342], 10 to 100 nM. In the case of `O=C1CCC(CNC(=O)Cn2c(CCCC(F)(F)F)nc(-c3ccc(C(F)(F)F)cc3)cc2=O)CN1` (stereo not drawn) [Compound I-0343], the IC50 is 100 to 1000 nM. As to `O=C(Cn1c(CCCC(F)(F)F)nc(-c2ccc(C(F)(F)F)cc2)cc1=O)NCC1(O)CCCCC1` [Compound I-0344], the IC50 was 10 to 100 nM. To `O=C(O)c1cccc(Cn2c(CCC(F)(F)F)nc(-c3ccc(Cl)cc3NC(=O)C3CC3)cc2=O)c1` [Compound I-0345] belongs 10 to 100 nM. For `O=C(Cn1c(CCCC(F)(F)F)nc(-c2ccc(C(F)(F)F)cc2)cc1=O)N1CCN(CCO)CC1` [Compound I-0346] the value was 10 to 100 nM; for `O=C(Cn1c(CCCC(F)(F)F)nc(-c2ccc(C(F)(F)F)cc2)cc1=O)NC1(c2cccnc2)CC1` [Compound I-0347], 10 to 100 nM. Regarding `O=C(Cn1c(CCCC(F)(F)F)nc(-c2ccc(C(F)(F)F)cc2)cc1=O)NC1(c2ccccn2)CC1` [Compound I-0348], the IC50 was in the range of 10 to 100 nM.

On to `O=C(Cn1c(CCCC(F)(F)F)nc(-c2ccc(C(F)(F)F)cc2)cc1=O)N1CCS(=O)(=O)CC1` [Compound I-0349], for which the half-inhibitory concentration (IC50) lay within 10 to 100 nM. For `CNC(=O)C1CCN(C(=O)Cn2c(CCCC(F)(F)F)nc(-c3ccc(C(F)(F)F)cc3)cc2=O)CC1` [Compound I-0350] the value was 10 to 100 nM; for `CC(=O)NC1CCN(C(=O)Cn2c(CCCC(F)(F)F)nc(-c3ccc(C(F)(F)F)cc3)cc2=O)CC1` [Compound I-0351], 100 to 1000 nM; for `CC(C)(O)C1CCN(C(=O)Cn2c(CCCC(F)(F)F)nc(-c3ccc(C(F)(F)F)cc3)cc2=O)CC1` [Compound I-0352], 10 to 100 nM. With `NC(=S)C1CCN(C(=O)Cn2c(CCCC(F)(F)F)nc(-c3ccc(C(F)(F)F)cc3)cc2=O)CC1` [Compound I-0353], the IC50 was 10 to 100 nM.

For `O=C(Cn1c(CCCC(F)(F)F)nc(-c2ccc(C(F)(F)F)cc2)cc1=O)N1CCC(OCCO)CC1` [Compound I-0354], the IC50 fell in the range of 10 to 100 nM. For `O=C(NCC1(CO)COC1)c1ccc(Cn2c(CCCC(F)(F)F)nc(-c3ccc(Cl)cc3)cc2=O)o1` [Compound I-0355] the value was 100 to 1000 nM; for `CNC(=O)NC1CCN(C(=O)Cn2c(CCCC(F)(F)F)nc(-c3ccc(C(F)(F)F)cc3)cc2=O)CC1` [Compound I-0356], < 10 nM. For `CC(C)(O)CN1CCN(C(=O)Cn2c(CCCC(F)(F)F)nc(-c3ccc(C(F)(F)F)cc3)cc2=O)CC1` [Compound I-0357] the value was 100 to 1000 nM; for `O=C(NCC1(CO)COC1)c1cccc(Cn2c(CCCC(F)(F)F)nc(-c3ccc(Cl)cc3)cc2=O)n1` [Compound I-0358], 10 to 100 nM. For `CS(=O)(=O)N1CCN(C(=O)Cn2c(CCCC(F)(F)F)nc(-c3ccc(C(F)(F)F)cc3)cc2=O)CC1` [Compound I-0359], the IC50 fell in the range of 10 to 100 nM. For `CC(C)(C)C(=O)Nc1cc(Cl)ccc1-c1cc(=O)n(CC(=O)NCC2(CO)COC2)c(CCC(F)(F)F)n1` [Compound I-0360] the value was 100 to 1000 nM. For `CN1CNC(=O)C12CCN(C(=O)Cn1c(CCCC(F)(F)F)nc(-c3ccc(C(F)(F)F)cc3)cc1=O)CC2` [Compound I-0361] the value was 10 to 100 nM; for `O=C(Cn1c(CCCC(F)(F)F)nc(-c2ccc(C(F)(F)F)cc2)cc1=O)N1CCC(N2CCNC2=O)CC1` [Compound I-0362], 10 to 100 nM; for `CCNC(=O)N1CCC(NC(=O)Cn2c(CCCC(F)(F)F)nc(-c3ccc(C(F)(F)F)cc3)cc2=O)CC1` [Compound I-0363], 10 to 100 nM. With `CN(C)C(=O)NC1CCN(C(=O)Cn2c(CCCC(F)(F)F)nc(-c3ccc(C(F)(F)F)cc3)cc2=O)CC1` [Compound I-0364], the IC50 lay in the range of 100 to 1000 nM. To `CNC(=O)CN1CCC(NC(=O)Cn2c(CCCC(F)(F)F)nc(-c3ccc(C(F)(F)F)cc3)cc2=O)CC1` [Compound I-0365] belongs 100 to 1000 nM; to `CCS(=O)(=O)N1CCN(C(=O)Cn2c(CCCC(F)(F)F)nc(-c3ccc(C(F)(F)F)cc3)cc2=O)CC1` [Compound I-0366], 100 to 1000 nM.

For the compound `CC(C)(C)C(=O)Nc1cc(Cl)ccc1-c1cc(=O)n(CC(=O)N2CCC(C(=O)O)CC2)c(CCC(F)(F)F)n1` [Compound I-0367], the IC50 fell in the range of 10 to 100 nM. Turning to `O=C(Cn1c(CCCC(F)(F)F)nc(-c2ccc(C(F)(F)F)cc2)cc1=O)NCCc1nnc(-c2ccccc2)o1` [Compound I-0368], the IC50 was in the range of 10 to 100 nM. For the compound `O=C(Cn1c(CCCC(F)(F)F)nc(-c2ccc(C(F)(F)F)cc2)cc1=O)N1CCC(O)(Cc2ccccc2)CC1` [Compound I-0369], the IC50 was 100 to 1000 nM. To `CCS(=O)(=O)N1CCC(NC(=O)Cn2c(CCCC(F)(F)F)nc(-c3ccc(C(F)(F)F)cc3)cc2=O)CC1` [Compound I-0370] belongs 100 to 1000 nM; to `Cc1nc(-c2ccc(Cl)cc2NC(=O)C(C)(C)C)cc(=O)n1CCO` [Compound I-0371], ≥ 1000 nM; to `COC(=O)Nc1cc(C#N)ccc1-c1cc(=O)n(CC(=O)NC(C)(C)C)c(C)n1` [Compound I-0372], 10 to 100 nM.

For the compound `COC(=O)Nc1cc(C#N)ccc1-c1cc(=O)n(CC(=O)OC(C)(C)C#N)c(C)n1` [Compound I-0373], the concentration for half-maximal inhibition (IC50) is 10 to 100 nM. To `COC(=O)Nc1cc(C#N)ccc1-c1cc(=O)n(CC(=O)N(C)C(C)(C)C)c(C)n1` [Compound I-0374] belongs 10 to 100 nM.

Take `COC(=O)Nc1cc(Cl)ccc1-c1cc(=O)n(CC(=O)OC(C)(C)C#N)c(C)n1` [Compound I-0375]: the IC50 was < 10 nM. For `Cc1nc(-c2ccc(Cl)cc2NC(=O)C(C)(C)C)cc(=O)n1CC(=O)NC1(C#N)CC1` [Compound I-0376] the value was 10 to 100 nM; for `COC(=O)Nc1cc(Cl)ccc1-c1cc(=O)n(Cc2cccc(C(=N)NO)c2)c(C)n1` [Compound I-0377], 10 to 100 nM; for `COC(=O)Nc1cc(C#N)ccc1-c1cc(=O)n(Cc2cccc(-c3nc(=O)o[nH]3)c2)c(C)n1` [Compound I-0378], < 10 nM.

On to `COC(=O)Nc1cc(Cl)ccc1-c1cc(=O)n(Cc2cccc(-c3nc(=O)o[nH]3)c2)c(C)n1` [Compound I-0379], for which the IC50 is < 10 nM. For `Cc1nc(-c2ccc(Cl)cc2NC(=O)C(C)(C)C)cc(=O)n1CC(=O)NC1(C(=N)NO)CC1` [Compound I-0380] the value was 10 to 100 nM; for `CNC(=O)NC1CCN(C(=O)Cn2c(C)nc(-c3ccc(C#N)cc3NC(=O)OC)cc2=O)CC1` [Compound I-0381], 10 to 100 nM.

With `CCCCCc1nc(-c2ccc(Cl)cc2)cc(=O)n1CC(=O)N1CCC(c2nc(=O)o[nH]2)CC1` [Compound I-0382], the IC50 lay in the range of 10 to 100 nM. For `CNC(=O)NC1CCN(C(=O)Cn2c(C)nc(-c3ccc(Cl)cc3NC(=O)OC)cc2=O)CC1` [Compound I-0383] the value was 10 to 100 nM.

For the origin of these results see patent US10183949B2, “Pyrimidinone derivative having autotaxin-inhibitory activity” (The University of Tokyo, priority 2014, dated 2019).
